For assay [1], the target named is T1, TACE (Homo sapiens, UniProt P78536).
T1 construct: Human mononuclear cells are isolated from anti-coagulated human blood; endogenous in cells; host or cells: human peripheral blood mononuclear cells, LPS stimulated
Put plainly: Inhibition of soluble TNF-α production (TACE whole blood assay). The following applies: Table 2, read-out: TACE (IC50 class). The format is cell-based. The protocol: Inhibition of Soluble TNF-α Production (TACE Whole Blood Assay)
This assay is used in the invention to measure the potency (IC50s) of compounds for TACE.
Human mononuclear cells are isolated from anti-coagulated human blood using a one-step Ficoll-hypaque separation technique. (2) The mononuclear cells are washed three times in Hanks balanced salt solution (HBSS) with divalent cations and re-suspended to a density of 2×10^6/ml in HBSS containing 1% BSA.
180 μL of the cell suspension was aliquoted into flat bottom 96 well plates (Costar). Additions of compounds and LPS (100 ng/ml final concentration) gives a final volume of 200 μL. All conditions are performed in triplicate. After about a four hour incubation at about 37° C. in an humidified CO2 incubator, plates are removed and centrifuged (about 10 minutes at approximately 250×g) and the supernatants removed and assayed for TNF-α using the R&D ELISA Kit.

The target in assay [2] is Human recombinant collagenase-3 (Homo sapiens, UniProt P45452). In words: Inhibition of human collagenase-3 (recombinant collagenase-3 assay). The format is biochemical. As to conditions: Table 2; recombinant collagenase-3 assay; read-out: MMP-13 (IC50 class). The method, then: Inhibition of Human Collagenase-3 (Recombinant Collagenase-3 Assay)
This assay is used in the invention to measure the potency (IC50s) of compounds for collagenase-3.
Human recombinant collagenase-3 is activated with 2 mM APMA (p-aminophenyl mercuric acetate) for about 2.0 hours, at about 37° C. and is diluted to about 240 ng/ml in assay buffer (50 mM Tris, pH 7.5, 200 mM sodium chloride, 5 mM calcium chloride, […], 0.02% BRIJ-35). Twenty-five micro-liters of diluted enzyme is added per well of a 96 well microfluor plate.
The final concentrations in the assay are 30 μM, 3 μM, 0.3 μM, and 0.03 μM.
Fluorescence readings (360 nm excitation; 450 nm emission) are taken at time 0 and about every 5 minutes for about 1 hour.
Positive controls and negative controls are set up in triplicate as outlined in the collagenase-1 assay. IC50's are determined as per inhibition of human collagenase (collagenase-1).

Assay [3] has as its target T2, Human recombinant collagenase-1 (Homo sapiens, UniProt P03956).
T2 sequence (P03956 100-469): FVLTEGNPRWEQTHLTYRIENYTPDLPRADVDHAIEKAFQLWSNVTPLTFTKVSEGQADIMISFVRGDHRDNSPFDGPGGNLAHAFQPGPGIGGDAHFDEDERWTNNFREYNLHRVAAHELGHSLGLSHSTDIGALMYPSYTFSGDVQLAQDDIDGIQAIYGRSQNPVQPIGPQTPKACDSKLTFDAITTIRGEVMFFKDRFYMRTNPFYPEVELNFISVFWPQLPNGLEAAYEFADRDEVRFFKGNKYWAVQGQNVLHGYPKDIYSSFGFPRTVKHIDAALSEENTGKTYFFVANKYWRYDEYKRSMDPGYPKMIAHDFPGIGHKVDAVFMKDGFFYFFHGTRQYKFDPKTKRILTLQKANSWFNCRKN
In words: Inhibition of human collagenase-1 (recombinant collagenase-1 assay). Format: biochemical. As to conditions: Table 2, read-out: MMP-1 (IC50 class). The method, then:
Inhibition of Human Collagenase-1 (Recombinant Collagenase-1 Assay)
This assay is used in the invention to measure the potency (IC50s) of compounds for collagenase-1.
Human recombinant collagenase-1 is activated with trypsin. The amount of trypsin is optimized for each lot of collagenase-1, but a typical reaction uses the following ratio: 5 mg trypsin per 100 mg of collagenase.
Stock solutions (10 mM) of inhibitors are made up in dimethylsulfoxide and then diluted using the following scheme: • 10 mM------>120 μM------>12 μM------>1.2 μM------>0.12 μM
Twenty-five microliters of each concentration is then added in triplicate to appropriate wells of a 96 well microfluor plate. The final concentration of inhibitor will be a 1:4 dilution after addition of enzyme and substrate. Positive controls (enzyme, no inhibitor) are set up in wells D7–D12 and negative controls (no enzyme, no inhibitors) are set in wells D1–D6.
Collagenase-1 is diluted to 240 ng/ml and […] is then added to appropriate wells of the microfluor plate. Final concentration of collagenase in the assay is 60 ng/ml.
Substrate (DNP-Pro-Cha-Gly-Cys(Me)-His-Ala-Lys(NMA)-NH2) is made as a 5 mM stock in dimethylsulfoxide and then diluted to 20 μM in assay buffer. The assay is initiated by the addition of […] substrate per well of the microfluor plate to give a final concentration of 10 μM.
Fluorescence readings (360 nm excitation, 460 nm emission) are taken at time 0 and then at about 20 minute intervals. The assay is conducted at a temperature of about 20 to about 25° C., preferably about 23° C. with a typical assay time of about 3 hours.
Fluorescence versus time is then plotted for both the blank and collagenase containing samples (data from triplicate determinations is averaged). A time point that provides a good signal (at least five fold over the blank) and that is on a linear part of the curve (usually around 120 minutes) is chosen to determine IC50 values. The zero time is used as a blank for each compound at each concentration and these values are subtracted from the 120 minute data. Data is plotted as inhibitor concentration versus % control (inhibitor fluorescence divided by fluorescence of collagenase alone ×100).

Assay [4] concerns aggrecanase. Put plainly: Aggrecanase chondrocyte assay (35S-proteoglycan release, IL-1 stimulated). Format: cell-based, porcine. As to conditions: Table 2; aggrecanase chondrocyte assay; read-out: Agg (aggrecanase IC50 class). The method, then:
Aggrecanase Chondrocyte Assay
This assay is used in the invention to measure the potency (IC50s) of compounds for aggrecanase.
Primary porcine chondrocytes from articular joint cartilage are isolated by sequential trypsin and collagenase digestion followed by collagenase digestion overnight and are plated at 2×10^5 cells per well into 48 well plates with 5 μCi/ml ^35S (1000 Ci/mmol) sulphur in type I collagen coated plates. Cells are allowed to incorporate label into their proteoglycan matrix (approximately 1 week) at 37° C., under an atmosphere of 5% CO2.
The night before initiating the assay, chondrocyte monolayers are washed two times in DMEM/1% PSF/G and then allowed to incubate in fresh DMEM/1% FBS overnight.
The following morning chondrocytes are washed once in DMEM/1% PSF/G. The final wash is allowed to sit on the plates in the incubator while making dilutions. Media and dilutions can be made as described in the Table I below.
Plates are labeled and only the interior 24 wells of the plate are used. On one of the plates, several columns are designated as IL-1 (no drug) and Control (no IL-1, no drug). These control columns are periodically counted to monitor 35S-proteoglycan release. Control and IL-1 media are added to wells (450 μl) followed by compound (50 μl) so as to initiate the assay. Plates are incubated at 37° C., with a 5% CO2 atmosphere.
At 40–50% release (when CPM from IL-1 media is 4–5 times control media) as assessed by liquid scintillation counting (LSC) of media samples, the assay is terminated (about 9 to about 12 hours). Media is removed from all wells and placed in scintillation tubes. Scintillate is added and radioactive counts are acquired (LSC). To solubilize cell layers, 500 μL of papain digestion buffer (0.2 M Tris, pH 7.0, 5 mM EDTA, 5 mM DTT, and 1 mg/ml papain) is added to each well. Plates with digestion solution are incubated at 60° C. overnight. The cell layer is removed from the plates the next day and placed in scintillation tubes. Scintillate is then added, and samples counted (LSC).
The percent of released counts from the total present in each well is determined. Averages of the triplicates are made with control background subtracted from each well.

Molecules are shown by their SMILES.

T1 sequence (P78536 215-824): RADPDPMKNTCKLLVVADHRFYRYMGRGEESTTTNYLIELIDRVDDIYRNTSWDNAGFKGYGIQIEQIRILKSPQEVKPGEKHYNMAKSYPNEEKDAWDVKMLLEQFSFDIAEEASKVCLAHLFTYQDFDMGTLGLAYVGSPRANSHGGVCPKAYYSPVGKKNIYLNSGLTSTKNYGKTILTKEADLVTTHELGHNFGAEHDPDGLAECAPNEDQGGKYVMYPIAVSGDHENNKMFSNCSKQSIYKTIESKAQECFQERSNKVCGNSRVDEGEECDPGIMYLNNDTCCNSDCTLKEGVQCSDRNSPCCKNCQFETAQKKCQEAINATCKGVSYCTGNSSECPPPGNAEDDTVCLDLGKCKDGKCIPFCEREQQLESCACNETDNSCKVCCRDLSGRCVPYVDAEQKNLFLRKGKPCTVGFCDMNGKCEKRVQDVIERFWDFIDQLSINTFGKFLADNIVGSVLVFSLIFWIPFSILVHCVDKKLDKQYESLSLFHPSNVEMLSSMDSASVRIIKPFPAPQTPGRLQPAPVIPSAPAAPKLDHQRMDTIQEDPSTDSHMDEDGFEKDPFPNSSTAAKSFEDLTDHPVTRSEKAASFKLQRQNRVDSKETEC

By IC50 is commonly meant the midpoint of a concentration-inhibition curve. As to `CC1(C)C[C@@H](O)CN(S(=O)(=O)c2ccc(OCc3ccc(F)cc3)cc2)[C@H]1C(=O)NO` [(2R,5R) 1-[4-(4-fluoro-benzyloxy)-benzenesulfonyl]-5-hydroxy-3,3-dimethyl-piperidine-2-carboxylic acidhydroxyamide], the IC50 is 10000 to 20000 nM in assay [1], less than 10 nM in assay [2], 20 to 200 nM in assay [3] and less than 10 nM in assay [4].

Turning to `CNC(=O)N1CCN(S(=O)(=O)c2ccc(OCc3ccc(F)cc3F)cc2)[C@@H](C(=O)NO)[C@@H]1C` [(2R,3S) 4-[4-(2,4-difluoro-benzyloxy)-benzenesulfonyl]-3-methyl-4-carboxylic acidmethylamide-piperazine-2-carboxylic acidhydroxyamide], the IC50 in assay [1] is 10000 to 20000 nM; in assay [2], less than 10 nM; in assay [3] it was 200 to 1000 nM; in assay [4], 10 to 20 nM.

Take `C[C@@]1(O)CCCN(S(=O)(=O)c2ccc(OCc3ccc(Cl)cc3F)cc2)[C@H]1C(=O)NO` [(2R,3R) 1-[4-(2-fluoro-4-chloro-benzyloxy)-benzenesulfonyl]-3-hydroxy-3-methyl-piperidine-2-carboxylic acidhydroxyamide]: the IC50 was greater than 40000 nM in assay [1], less than 10 nM in assay [2], 20 to 200 nM in assay [3] and less than 10 nM in assay [4].

For `C[C@@]1(O)CCCN(S(=O)(=O)c2ccc(OCc3ccc(Cl)cc3Cl)cc2)[C@H]1C(=O)NO` [(2R,3R) 1-[4-(2,4-dichloro-benzyloxy)-benzenesulfonyl]-3-hydroxy-3-methyl-piperidine-2-carboxylic acidhydroxyamide], the IC50 in assay [1] is 10000 to 20000 nM; in assay [2], less than 10 nM; in assay [3], 200 to 1000 nM; in assay [4], less than 10 nM.

As for `Cc1ccc(Cl)cc1COc1ccc(S(=O)(=O)N2C[C@H](O)CC(C)(C)[C@@H]2C(=O)NO)cc1` [(2R,5R) 1-[4-(2-methyl-5-chloro-benzyloxy)-benzenesulfonyl]-5-hydroxy-3,3-dimethyl-piperidine-2-carboxylic acidhydroxyamide], the IC50 in assay [1] is 10000 to 20000 nM; in assay [2], 20 to 200 nM; in assay [3], greater than 1000 nM; in assay [4], 10 to 20 nM.

In the case of `C[C@@]1(O)CCCN(S(=O)(=O)c2ccc(OCc3ccc(F)cc3Cl)cc2)[C@H]1C(=O)NO` [(2R,3R) 1-[4-(2-chloro-4-fluoro-benzyloxy)-benzenesulfonyl]-3-hydroxy-3-methyl-piperidine-2-carboxylic acidhydroxyamide], the IC50 in assay [1] is 10000 to 20000 nM; in assay [2], less than 10 nM; in assay [3] it was 200 to 1000 nM; in assay [4], less than 10 nM.

`Cc1ccccc1COc1ccc(S(=O)(=O)N2CCN(C(=O)CN)[C@@H](C)[C@@H]2C(=O)NO)cc1` [(2R,3S) 1-[4-(2-methyl-benzyloxy)-benzenesulfonyl]-4-aminoacetyl-3-methyl-piperazine-2-carboxylic acidhydroxyamide]: the IC50 in assay [1] was less than 10000 nM; in assay [2] it was 20 to 200 nM; in assay [3], greater than 1000 nM; in assay [4], less than 10 nM.

On to `Cc1c(F)cccc1COc1ccc(S(=O)(=O)N2C[C@H](O)CC(C)(C)[C@@H]2C(=O)NO)cc1` [(2R,5R) 1-[4-(2-methyl-3-fluoro-benzyloxy)-benzenesulfonyl]-5-hydroxy-3,3-dimethyl-piperidine-2-carboxylic acidhydroxyamide], for which the IC50 in assay [1] is less than 10000 nM; in assay [2] it was less than 10 nM; in assay [3], 200 to 1000 nM; in assay [4], less than 10 nM.

Turning to `Cc1ccccc1COc1ccc(S(=O)(=O)N2CCC[C@](C)(O)[C@@H]2C(=O)NO)cc1` [(2R,3S) 1-[4-(2-methyl-benzyloxy)-benzenesulfonyl]-3-hydroxy-3-methyl-piperidine-2-carboxylic acidhydroxyamide], the IC50 in assay [1] was less than 10000 nM; in assay [2] it was less than 10 nM; in assay [3] it was 200 to 1000 nM; in assay [4] it was 10 to 20 nM.

For the compound `CC1(C)C[C@@H](O)CN(S(=O)(=O)c2ccc(OCc3ccccc3Br)cc2)[C@H]1C(=O)NO` [(2R,5R) 1-[4-(2-bromo-benzyloxy)-benzenesulfonyl]-5-hydroxy-3,3-dimethyl-piperidine-2-carboxylic acidhydroxyamide], the IC50 in assay [1] was less than 10000 nM; in assay [2] it was less than 10 nM; in assay [3], 200 to 1000 nM; in assay [4], 10 to 20 nM.

Turning to `Cc1cc(F)ccc1COc1ccc(S(=O)(=O)N2C[C@H](O)CC(C)(C)[C@@H]2C(=O)NO)cc1` [(2R,5R) 1-[4-(4-fluoro-2-methyl-benzyloxy)-benzenesulfonyl]-5-hydroxy-3,3-dimethyl-piperidine-2-carboxylic acidhydroxyamide], the IC50 in assay [1] is less than 10000 nM; in assay [2], less than 10 nM; in assay [3], 200 to 1000 nM; in assay [4], less than 10 nM.

The values are drawn from patent publication US7030242B2, “Selective inhibition of aggrecanase in osteoarthritis treatment” (Pfizer Inc, priority 1999, dated 2006).
